Numbered stars: 1 amine (or outer) side, 2 acyl side, 3 side chain; on linkers, the order of the positions; unused ones are H or OH. Bridge positions count the residues as written; N and C are the ends. Square brackets hold non-standard residues; d marks the D form. Peptide text beside a SMILES is read from it. * marks the point of attachment. Trp(βS-Me,7-OMe) = COc1cccc2c([C@H](C)[C@H](N)C(=O)O)c[nH]c12; Trp(1-CH2COOH) = N[C@@H](Cc1cn(CC(=O)O)c2ccccc12)C(=O)O; Trp(βS-Me) = C[C@@H](c1c[nH]c2ccccc12)[C@H](N)C(=O)O; Trp(7-CN) = N#Cc1cccc2c(C[C@H](N)C(=O)O)c[nH]c12; Trp(7-Cl) = N[C@@H](Cc1c[nH]c2c(Cl)cccc12)C(=O)O; Phe(4-CONH2) = NC(=O)c1ccc(C[C@H](N)C(=O)O)cc1; Phe(4-COOH) = N[C@@H](Cc1ccc(C(=O)O)cc1)C(=O)O; 4Pal(3S-Me) = C[C@@H](c1ccncc1)[C@H](N)C(=O)O; Phe(4-CH2NH2) = NCc1ccc(C[C@H](N)C(=O)O)cc1; X46 = Nc1ncc(C[C@H](N[*:1])C(=O)[*:2])cn1; Pip(5R-OH) = O=C(O)[C@@H]1CC[C@@H](O)CN1; αMeW = C[C@](N)(Cc1c[nH]c2ccccc12)C(=O)O; Lys(N3) = [N-]=[N+]=NCCCC[C@H](N)C(=O)O; X1 = O=C([C@@H]1CC[C@H](N[*:1])C1)[*:2]; 2Nal = N[C@@H](Cc1ccc2ccccc2c1)C(=O)O; 4Pal = N[C@@H](Cc1ccncc1)C(=O)O; dHyp = O=C(O)[C@H]1C[C@H](O)CN1; Ahp(2) = CCCCC[C@H](N)C(=O)O; αMeS = C[C@](N)(CO)C(=O)O; Carboxymethyl = O=C(O)C*; Nle = CCCC[C@H](N)C(=O)O; Dap = NC[C@H](N)C(=O)O; Sar = CNCC(=O)O

In the first assay the target is T1, human soluble TNFR1 (sTNFR1) (Homo sapiens, UniProt P19438).
T1 construct: made in house; host or cells: Sf21 (baculovirus)
T1 sequence (P19438 with tags, fused parts or gaps): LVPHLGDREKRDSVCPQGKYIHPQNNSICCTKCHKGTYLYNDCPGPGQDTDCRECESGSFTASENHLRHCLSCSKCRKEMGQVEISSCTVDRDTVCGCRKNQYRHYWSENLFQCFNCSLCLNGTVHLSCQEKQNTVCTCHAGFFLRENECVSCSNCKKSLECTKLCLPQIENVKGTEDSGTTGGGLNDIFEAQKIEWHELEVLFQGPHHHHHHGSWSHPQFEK
Put plainly: Human sTNFR1-peptide displacement assay (LanthaScreen Eu TR-FRET binding assay).
Details: not given
As for the experimental part: A. Procedure for Human sTNFR1-Peptide Displacement Assay
The affinity was determined using LanthaScreen Eu-based time-resolved fluorescence resonance energy transfer (TR-FRET)-based binding assay.
A TR-FRET assay measuring the displacement of biotinylated peptide SEQ ID NO. 1 from human soluble TNFR1 (sTNFR1) in a pre-formed complex by a macrocyclic peptide yields the affinity (Kd^app) of the cyclic peptide for sTNFR1. The reagents for the assay include: the C′-terminally 6His-tagged sTNFR1 (residues 1-211) protein purified from a Sf21 baculovirus expression system, the biotin-tagged B0372 peptide described in section “Preparation of Final Compounds”, part E, the LanthaScreen™ anti-His Tag Europium donor (Life Technologies Corporation (San Diego, CA), cat. #PV5597), and a streptavidin-conjugate Alexa Fluor™ 647 acceptor (Invitrogen (Waltham, MA), cat. #S32357). Time-resolved TR-FRET is achieved when sTNFR1 is bound to biotinylated peptide SEQ ID NO. 1 through coupling of the donor and acceptor FRET pair.
100 nM biotinylated peptide SEQ ID NO. […] 100 nM biotinylated peptide SEQ ID NO. 1 was chosen as it reflects the ˜Kd for this complex. After 30 min at ambient temperature, each test peptide (2 mM stock in DMSO) is titrated in a 20 point, ˜3-fold discrete dose-response using an acoustic-dispense liquid handler. Specifically, 80 nL of peptide/DMSO is transferred into a ProxiPlate-384 Plus 384-well assay plate (PerkinElmer, cat. #6008289). To this plate, 8 μL of the previously formed sTNFR 1-biotinylated peptide SEQ ID NO. 1 complex is added and allowed to reach binding equilibrium with the test peptide at ambient temperature for 90 min.
The TR-FRET signal is measured with the following EnVision® settings: excitation laser at 337 nm; emission1=615 nm, emission2=665 nm, LANCE/DELFIA dichroic mirror, delay time=[…]. The signal of each well is determined as the ratio of the emission at 665 nm to that at 615 nm. Percent displacement is determined by normalization to control wells containing DMSO (0%) or a saturating concentration of a displaceable peptide (100%). The %-effect as a function of peptide concentration is fit to a five-parameter logistic fit based on the Morrison equation to account for tight binding kinetics.
Consider `CCCC[C@@H]1NC(=O)[C@@H]2CC[C@@H](C2)NC(=O)[C@H]([C@@H](C)c2c[nH]c3c(OC)cccc23)NC(=O)CN(C)C(=O)[C@H](Cc2ccc(OCC(=O)O)cc2)NC(=O)[C@H](Cc2cnc(N)nc2)NC(=O)[C@](C)(CO)NC(=O)[C@H](Cc2c[nH]c3c(C#N)cccc23)NC(=O)[C@H](Cc2ccc(OCC(=O)O)cc2)NC(=O)[C@H](CC(N)=O)NC(=O)[C@H]2C[C@H](O)CN2C(=O)[C@H](Cc2cn(CC(=O)O)c3ccccc23)NC(=O)[C@@H]2CC[C@@H](O)CN2C(=O)[C@H](Cc2ccncc2)NC1=O` [SEQ ID NO. 6] (cyclo([4Pal][Pip(5R-OH)][Trp(1-CH2COOH)][dHyp]NY(Carboxymethyl)[Trp(7-CN)][αMeS][X46]Y(Carboxymethyl)[Sar][Trp(βS-Me,7-OMe)][X1][Nle])), for which the Kd was determined as 0.08 nM. Same read-out and setting: under `CCCCC[C@@H]1NC(=O)[C@@H]2CC[C@@H](C2)NC(=O)[C@H]([C@@H](C)c2c[nH]c3c(OC)cccc23)NC(=O)CN(C)C(=O)[C@H](Cc2ccc(C(N)=O)cc2)NC(=O)[C@H](Cc2ccc(C(N)=O)cc2)NC(=O)[C@](C)(CO)NC(=O)[C@H](Cc2c[nH]c3c(C#N)cccc23)NC(=O)[C@H](Cc2ccc(C(=O)O)cc2)NC(=O)[C@H](CC(N)=O)NC(=O)[C@H]2C[C@H](O)CN2C(=O)[C@H](Cc2c[nH]c3ccccc23)NC(=O)[C@H]([C@@H](C)O)NC(=O)[C@H]([C@@H](C)c2ccncc2)NC1=O` [SEQ ID NO. 234] (cyclo([Ahp(2)][4Pal(3S-Me)]TW[dHyp]N[Phe(4-COOH)][Trp(7-CN)][αMeS][Phe(4-CONH2)][Phe(4-CONH2)][Sar][Trp(βS-Me,7-OMe)][X1])) stands 0.24 nM. Molecule `CCCCC[C@@H]1NC(=O)CSC[C@@H](C(N)=O)NC(=O)[C@](C)(Cc2c[nH]c3ccccc23)NC(=O)CN(C)C(=O)[C@H](Cc2c[nH]cn2)NC(=O)[C@H](Cc2ccc(C(=O)O)cc2)NC(=O)[C@](C)(CO)NC(=O)[C@H](Cc2ccc3ccccc3c2)NC(=O)[C@H](Cc2ccc(C(=O)O)cc2)NC(=O)[C@H](CC(N)=O)NC(=O)[C@H]2CCCN2C(=O)[C@H]([C@@H](C)c2c[nH]c3ccccc23)NC(=O)[C@H](CO)NC(=O)[C@H](Cc2ccncc2)NC1=O` [SEQ ID NO. 237] ({CH2CO}-[Ahp(2)][4Pal]S[Trp(βS-Me)][dP]N[Phe(4-COOH)][2Nal][αMeS][Phe(4-COOH)]H[Sar][αMeW]C-NH2; thioether N-14) came in with an IC50 of 13 nM. `C[C@@H](c1c[nH]c2ccccc12)[C@@H]1NC(=O)[C@H](CN)NC(=O)[C@H](Cc2ccncc2)NC(=O)[C@H](CCCCN=[N+]=[N-])NC(=O)CSC[C@@H](C(N)=O)NC(=O)[C@](C)(Cc2c[nH]c3ccccc23)NC(=O)CN(C)C(=O)[C@H](Cc2ccc(CN)cc2)NC(=O)[C@H](Cc2ccc(C(=O)O)cc2)NC(=O)[C@](C)(CO)NC(=O)[C@H](Cc2c[nH]c3c(Cl)cccc23)NC(=O)[C@H](Cc2ccncc2)NC(=O)[C@H](CC(N)=O)NC(=O)[C@H]2CCCN2C1=O` [SEQ ID NO. 245] ({CH2CO}-[Lys(N3)][4Pal][Dap][Trp(βS-Me)][dP]N[4Pal][Trp(7-Cl)][αMeS][Phe(4-COOH)][Phe(4-CH2NH2)][Sar][αMeW]C-NH2; thioether N-14) came in with a half-maximal inhibitory concentration (IC50) of 0.95 nM.

Another assay addresses T2, TNFα-induced NF-κB signal transduction pathway (TNFR1 signaling) in THP-1 cells (Homo sapiens, UniProt P19438).
T2 sequence (P19438 30-455): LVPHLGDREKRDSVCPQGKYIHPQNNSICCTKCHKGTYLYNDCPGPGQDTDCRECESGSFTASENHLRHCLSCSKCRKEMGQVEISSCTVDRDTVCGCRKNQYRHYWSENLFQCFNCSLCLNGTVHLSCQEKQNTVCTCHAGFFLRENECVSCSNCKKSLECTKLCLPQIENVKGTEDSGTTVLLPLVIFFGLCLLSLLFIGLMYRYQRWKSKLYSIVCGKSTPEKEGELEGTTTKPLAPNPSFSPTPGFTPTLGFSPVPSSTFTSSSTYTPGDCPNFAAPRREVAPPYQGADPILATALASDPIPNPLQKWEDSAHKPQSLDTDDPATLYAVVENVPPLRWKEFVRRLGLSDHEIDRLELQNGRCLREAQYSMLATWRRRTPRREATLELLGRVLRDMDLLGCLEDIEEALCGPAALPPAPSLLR
The experiment in a line: THP-1 Lucia NF-κB reporter cell assay, inhibition of TNFα-induced NF-κB signaling. The class given is cell-based. The following applies: THP-1 NF-κB Lucia reporter cells, 10 ng/mL TNFα, 16-18 h, secreted luciferase; read-out: THP-1 IC50. The procedure, abridged: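 THP-1 Lucia NF-κB cells, 20k/well, no selection antibiotics; peptide pre-inc 1 h 37 °C; + recombinant human TNFα 10 ng/mL final; o.n.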
With `CCCC[C@@H]1NC(=O)[C@@H]2CC[C@@H](C2)NC(=O)[C@H]([C@@H](C)c2c[nH]c3c(OC)cccc23)NC(=O)CN(C)C(=O)[C@H](Cc2ccc(OCC(=O)O)cc2)NC(=O)[C@H](Cc2cnc(N)nc2)NC(=O)[C@](C)(CO)NC(=O)[C@H](Cc2c[nH]c3c(C#N)cccc23)NC(=O)[C@H](Cc2ccc(OCC(=O)O)cc2)NC(=O)[C@H](CC(N)=O)NC(=O)[C@H]2C[C@H](O)CN2C(=O)[C@H](Cc2cn(CC(=O)O)c3ccccc23)NC(=O)[C@@H]2CC[C@@H](O)CN2C(=O)[C@H](Cc2ccncc2)NC1=O` [SEQ ID NO. 6] (cyclo([4Pal][Pip(5R-OH)][Trp(1-CH2COOH)][dHyp]NY(Carboxymethyl)[Trp(7-CN)][αMeS][X46]Y(Carboxymethyl)[Sar][Trp(βS-Me,7-OMe)][X1][Nle])), the IC50 was 0.8 nM.
